Values of other authors in US20230381197A1, “COMPOSITIONS FOR NON-SURGICAL PREVENTION OF BOAR TAINT AND […]” (Insigna Inc., priority 2022, published 2023).

System: Sertoli cells
Conditions: young male pigs

Row | SMILES | duration of Sertoli cell proliferation and testis size
1 | C[C@]12CC[C@@H]3c4ccc(O)cc4C[C@@H](CCCCCCCCC[S+]([O-])CCCC(F)(F)C(F)(F)F)[C@H]3[C@@H]1CC[C@@H]2O (some centres unmarked) [ICI 182,780] | highly significant increase
2 | N#Cc1ccc(C(c2ccc(C#N)cc2)n2cncn2)cc1 [Letrozole] | highly significant increase
